The text below walks through data of ChEMBL document CHEMBL1821574, “Structure-activity relationships of 4-position diamine quinoline methanols as intermittent preventative treatment (IPT) against Plasmodium falciparum” (J Med Chem, 2011).

In brackets after ≈: the same amount, converted by molar mass. Bounds are passed on as bounds.

The subject of series [1] is Plasmodium falciparum. The series can be described thus: Antimalarial activity against chloroquine-resistant and mefloquine-sensitive Plasmodium falciparum W2 assessed as inhibition of [3H]hypoxanthine incorporation by liquid scintillation spectrometry. The class given is functional.
Series [2] has as its system Plasmodium falciparum. The series can be described thus: Antimalarial activity against chloroquine-sensitive and mefloquine-resistant Plasmodium falciparum D6 assessed as inhibition of [3H]hypoxanthine incorporation by liquid scintillation spectrometry. It counts as functional.
Series [3] concerns Plasmodium falciparum. Put plainly: Antimalarial activity against chloroquine, mefloquine and pyrimethamine-resistant Plasmodium falciparum TM91C235 assessed as inhibition of [3H]hypoxanthine incorporation by liquid scintillation spectrometry. The class given is functional.
Series [4] relates to Plasmodium falciparum. The series can be described thus: Antimalarial activity against chloroquine, mefloquine and pyrimethamine-resistant Plasmodium falciparum TM90C2A assessed as inhibition of [3H]hypoxanthine incorporation by liquid scintillation spectrometry. It counts as functional.
Series [5] concerns Plasmodium falciparum. The series can be described thus: Antimalarial activity against chloroquine-sensitive and mefloquine-resistant Plasmodium falciparum D6 by SYBR Green I-based fluorescence assay. The class given is functional.
In series [6] the test system is Plasmodium falciparum. Put plainly: Antimalarial activity against chloroquine, mefloquine and pyrimethamine-resistant Plasmodium falciparum TM91C235 by SYBR Green I-based fluorescence assay. The class given is functional.
The nature of series [7]: Apparent permeability from apical to basolateral side of dog MDCK cells at 5 uM after 2 hrs by LC/MS/MS analysis. The class given is ADME, cell-based, Canis lupus familiaris.
The test system of series [8] is Plasmodium berghei. Put plainly: Antimalarial activity against Plasmodium berghei infected in mouse assessed as host survival at 5 mg/kg, po administered as single dose. The class given is functional.
In series [9] the test system is Plasmodium berghei. The series can be described thus: Antimalarial activity against Plasmodium berghei infected in mouse assessed as host survival at 10 mg/kg, po administered as single dose. It counts as functional.
The test system of series [10] is Plasmodium berghei. Put plainly: Antimalarial activity against Plasmodium berghei infected in mouse assessed as host survival at 20 mg/kg, po administered as single dose. The class given is functional.
The subject of series [11] is Plasmodium berghei. The series can be described thus: Antimalarial activity against Plasmodium berghei infected in mouse assessed as host survival at 40 mg/kg, po administered as single dose. The class given is functional.
The subject of series [12] is Plasmodium berghei. Put plainly: Antimalarial activity against Plasmodium berghei infected in mouse assessed as host survival at 80 mg/kg, po administered as single dose. The class given is functional.
The test system of series [13] is Plasmodium berghei. The series can be described thus: Antimalarial activity against Plasmodium berghei infected in mouse assessed as host survival at 160 mg/kg, po administered as single dose. The class given is functional.
Series [14] concerns Plasmodium berghei. The series can be described thus: Antimalarial activity against Plasmodium berghei infected in mouse assessed as host survival at 320 mg/kg, po administered as single dose. The class given is functional.
The test system of series [15] is Plasmodium berghei. Put plainly: Antimalarial activity against Plasmodium berghei infected in mouse assessed as host survival at 5 mg/kg, po administered as single dose measured on day 31. The class given is functional. The conditions noted are these: 744 h.
Series [16] has as its system Plasmodium berghei. Put plainly: Antimalarial activity against Plasmodium berghei infected in mouse assessed as host survival at 10 mg/kg, po administered as single dose measured on day 31. It counts as functional. The conditions noted are these: 744 h.
The test system of series [17] is Plasmodium berghei. Put plainly: Antimalarial activity against Plasmodium berghei infected in mouse assessed as host survival at 20 mg/kg, po administered as single dose measured on day 31. The class given is functional. The conditions noted are these: 744 h.
Series [18] deals with Plasmodium berghei. Put plainly: Antimalarial activity against Plasmodium berghei infected in mouse assessed as host survival at 40 mg/kg, po administered as single dose measured on day 31. The conditions noted are these: 744 h. It counts as functional.
Series [19] deals with Plasmodium berghei. Put plainly: Antimalarial activity against Plasmodium berghei infected in mouse assessed as host survival at 80 mg/kg, po administered as single dose measured on day 31. The conditions noted are these: 744 h. The class given is functional.
Series [20] has as its system Plasmodium berghei. Put plainly: Antimalarial activity against Plasmodium berghei infected in mouse assessed as host survival at 160 mg/kg, po administered as single dose measured on day 31. The conditions noted are these: 744 h. It counts as functional.
For series [21], the system named is Plasmodium berghei. The series can be described thus: Antimalarial activity against Plasmodium berghei infected in mouse assessed as host survival at 320 mg/kg, po administered as single dose measured on day 31. The class given is functional. The conditions noted are these: 744 h.
In series [22] the test system is Plasmodium berghei. Put plainly: Antimalarial activity against Plasmodium berghei infected in mouse assessed as complete cure at 5 mg/kg, po administered as single dose measured on day 31. It counts as functional.
Series [23] deals with Plasmodium berghei. Put plainly: Antimalarial activity against Plasmodium berghei infected in mouse assessed as complete cure at 10 mg/kg, po administered as single dose measured on day 31. It counts as functional.
In series [24] the test system is Plasmodium berghei. The series can be described thus: Antimalarial activity against Plasmodium berghei infected in mouse assessed as complete cure at 20 mg/kg, po administered as single dose measured on day 31. It counts as functional.
For series [25], the system named is Plasmodium berghei. Put plainly: Antimalarial activity against Plasmodium berghei infected in mouse assessed as complete cure at 40 mg/kg, po administered as single dose measured on day 31. The class given is functional.
For series [26], the system named is Plasmodium berghei. Put plainly: Antimalarial activity against Plasmodium berghei infected in mouse assessed as complete cure at 80 mg/kg, po administered as single dose measured on day 31. The class given is functional.
Series [27] has as its system Plasmodium berghei. The series can be described thus: Antimalarial activity against Plasmodium berghei infected in mouse assessed as complete cure at 160 mg/kg, po administered as single dose measured on day 31. The class given is functional.
The subject of series [28] is Plasmodium berghei. The series can be described thus: Antimalarial activity against Plasmodium berghei infected in mouse assessed as complete cure at 320 mg/kg, po administered as single dose measured on day 31. It counts as functional.
In series [29] the test system is Plasmodium falciparum. The series can be described thus: Antimalarial activity against chloroquine-resistant and mefloquine-sensitive Plasmodium falciparum W2. It counts as functional.
Series [30] relates to Plasmodium falciparum. Put plainly: Antimalarial activity against mefloquine-resistant and chloroquine-sensitive Plasmodium falciparum D6. It counts as functional.
The test system of series [31] is Plasmodium falciparum. Put plainly: Antimalarial activity against chloroquine, mefloquine and pyrimethamine-resistant Plasmodium falciparum TM91C235. The class given is functional.
The subject of series [32] is Plasmodium falciparum. The series can be described thus: Antimalarial activity against chloroquine, mefloquine and pyrimethamine-resistant Plasmodium falciparum TM90C2A. It counts as functional.

On to `CC(CN1CCCC1)NCC(O)c1cc(C(F)(F)F)nc2c(C(F)(F)F)cccc12` (stereo not given), for which the IC90 – broadly, the concentration at which the effect reaches the 90% level – came to 0.011 µg/mL (≈ 0.0253 µM) in [1]; 0.039 µg/mL (≈ 0.0896 µM) in series [2]; 0.079 µg/mL (≈ 0.181 µM) in series [3]; 0.071 µg/mL (≈ 0.163 µM) in series [4]; 0.008 µg/mL (≈ 0.0184 µM) in series [5]; 0.055 µg/mL (≈ 0.126 µM) in series [6]. Also, the Papp A→B – broadly, the apparent permeability from the apical to the basolateral side of a cell layer – at 2 h, 5 µM in series [7] is 33.1 ×10⁻⁶ cm/s.
In the case of `CC1CC(C)CN(CCNCC(O)c2cc(C(F)(F)F)nc3c(C(F)(F)F)cccc23)C1` (stereo not given), the IC90 was below 0.001 µg/mL in series [1]; 0.005 µg/mL (≈ 0.0108 µM) in series [2]; 0.01 µg/mL (≈ 0.0216 µM) in series [3]; 0.011 µg/mL (≈ 0.0237 µM) in series [4]; 0.01 µg/mL (≈ 0.0216 µM) in series [5]; 0.056 µg/mL (≈ 0.121 µM) in [6]. In series [7], the Papp A→B at 2 h, 5 µM stood at 32.7 ×10⁻⁶ cm/s.
On to `CCCCNCCNCC(O)c1cc(C(F)(F)F)nc2c(C(F)(F)F)cccc12` (stereo not given), for which the IC90 in series [1] was 0.069 µg/mL (≈ 0.163 µM); in [2], 0.155 µg/mL (≈ 0.366 µM); in [3], 0.283 µg/mL (≈ 0.668 µM); in series [4], 0.319 µg/mL (≈ 0.753 µM); in series [5], 0.128 µg/mL (≈ 0.302 µM); in series [6], 0.236 µg/mL (≈ 0.557 µM). In addition, the Papp A→B at 2 h, 5 µM in series [7] was found to be 5.9 ×10⁻⁶ cm/s.
`CN(CCNCC(O)c1cc(C(F)(F)F)nc2c(C(F)(F)F)cccc12)C1CCCC1` (stereo not given): the IC90 is 0.011 µg/mL (≈ 0.0245 µM) in series [1]; 0.048 µg/mL (≈ 0.107 µM) in series [2]; 0.106 µg/mL (≈ 0.236 µM) in series [3]; 0.112 µg/mL (≈ 0.249 µM) in [4]; 0.035 µg/mL (≈ 0.0779 µM) in series [5]; 0.109 µg/mL (≈ 0.243 µM) in [6]. The Papp A→B at 2 h, 5 µM in series [7] is 17 ×10⁻⁶ cm/s.
Take `O[C@H](CNCCNC1CC1)c1cc(C(F)(F)F)nc2c(C(F)(F)F)cccc12`: the MST was 6.6 days in series [8]; 6.6 days in [9]; 6.8 days in series [10]; 10 days in series [11]; 16 days in series [12]; 19 days in series [13]. The MST in series [14] was found to be 30 days. Besides, in [15], the survival at 5 mg/kg amounted to 0%. In series [16], the survival at 10 mg/kg is 0%. The survival at 20 mg/kg in series [17] amounted to 0%. Moreover, the survival at 40 mg/kg in series [18] was 0%. Further, the survival at 80 mg/kg in series [19] was found to be 0%. In addition, the survival at 160 mg/kg in series [20] amounted to 0%. Further, the survival at 320 mg/kg in series [21] was determined as 100%. Moreover, the Activity in series [22], in [23], in [24], in series [25], in series [26] and in series [27] was 0% each time. Further, the Activity in series [28] amounted to 80%. The IC90 was 0.011 µg/mL (≈ 0.027 µM) in series [29], 0.027 µg/mL (≈ 0.0663 µM) in [30], 0.077 µg/mL (≈ 0.189 µM) in [31] and 0.073 µg/mL (≈ 0.179 µM) in series [32].
Take `O[C@@H](CNCCNC1CC1)c1cc(C(F)(F)F)nc2c(C(F)(F)F)cccc12`: the IC90 in series [29] was 0.011 µg/mL (≈ 0.027 µM); in series [30] it was 0.037 µg/mL (≈ 0.0908 µM); in series [31] it was 0.103 µg/mL (≈ 0.253 µM); in [32], 0.075 µg/mL (≈ 0.184 µM).
In the same order, the values of `CCN(CC)CCCC(C)Nc1ccnc2cc(Cl)ccc12` (stereo not given) [CHLOROQUINE] are 0.266 µg/mL (≈ 0.832 µM), 0.0051 µg/mL (≈ 0.0159 µM), 0.089 µg/mL (≈ 0.278 µM) and 0.139 µg/mL (≈ 0.435 µM).
Take `OC(c1cc(C(F)(F)F)nc2c(C(F)(F)F)cccc12)C1CCCCN1` (stereo not given) [MEFLOQUINE]: the IC90 in series [1] came out at 0.0067 µg/mL (≈ 0.0177 µM); in [2] it was 0.016 µg/mL (≈ 0.0423 µM); in [3] it was 0.053 µg/mL (≈ 0.14 µM); in series [5] it was 0.015 µg/mL (≈ 0.0396 µM); in series [6] it was 0.042 µg/mL (≈ 0.111 µM); in series [29], 0.0067 µg/mL (≈ 0.0177 µM). Moreover, the IC90 was 0.016 µg/mL (≈ 0.0423 µM) in series [30] and 0.053 µg/mL (≈ 0.14 µM) in series [31]. Also, the MST was 17 days in series [8]; 15 days in series [9]; 22 days in series [10]; 26 days in series [11]; 28 days in [12]; 27 days in series [13]. Moreover, in series [14], the MST was 24 days. Also, the survival at 5 mg/kg in series [15] is 20%. The survival at 10 mg/kg in [16] is 0%. In series [17], the survival at 20 mg/kg amounted to 30%. In [18], the survival at 40 mg/kg is 56%. In addition, in [19], the survival at 80 mg/kg is 70%. For the same compound, in [20], the survival at 160 mg/kg worked out at 50%. The survival at 320 mg/kg in series [21] was 60%. The Activity was determined as 20% in series [22]; 0% in series [23]; 10% in series [24]; 36% in [25]; 30% in series [26]; 20% in series [27]. The Activity in series [28] is 50%.
